This is an account of results in ChEMBL document CHEMBL3085626, “Synthesis and evaluation of multi-target-directed ligands against Alzheimer's disease based on the fusion of donepezil and ebselen” (J Med Chem, 2013).

Active and inactive are the calls of the source. The calls are words filed in the database; no cut-off is given here.

One data set has as its target Cholinesterase (Equus caballus, UniProt P81908).
For data set [1], the target named is T1, Acetylcholinesterase (Electrophorus electricus, UniProt O42275).
T1 sequence (O42275 whole entry): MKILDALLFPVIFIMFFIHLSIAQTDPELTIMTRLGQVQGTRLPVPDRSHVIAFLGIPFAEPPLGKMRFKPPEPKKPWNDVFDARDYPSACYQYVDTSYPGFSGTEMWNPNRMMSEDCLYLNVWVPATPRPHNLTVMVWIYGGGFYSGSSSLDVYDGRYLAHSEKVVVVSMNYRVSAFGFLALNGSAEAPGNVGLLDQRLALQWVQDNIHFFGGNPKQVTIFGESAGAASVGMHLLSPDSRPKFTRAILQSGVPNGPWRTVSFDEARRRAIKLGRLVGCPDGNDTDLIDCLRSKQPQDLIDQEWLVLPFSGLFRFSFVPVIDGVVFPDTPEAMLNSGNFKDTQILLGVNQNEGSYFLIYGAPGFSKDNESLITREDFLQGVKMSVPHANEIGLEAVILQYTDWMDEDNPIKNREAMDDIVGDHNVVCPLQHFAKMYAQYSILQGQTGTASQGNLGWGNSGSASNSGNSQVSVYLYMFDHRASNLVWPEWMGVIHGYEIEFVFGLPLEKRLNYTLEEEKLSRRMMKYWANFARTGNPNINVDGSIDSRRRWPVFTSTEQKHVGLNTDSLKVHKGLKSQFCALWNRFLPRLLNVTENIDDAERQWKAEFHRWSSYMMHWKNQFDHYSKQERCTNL
Description: Inhibition of electric eel AChE using acetylthiocholine chloride as substrate preincubated for 15 mins followed by substrate addition measured every 1 min by Ellman's method
Data set [2] deals with Mus musculus. The experiment in a line: Acute toxicity in KM mouse assessed as effect on food consumption up to 2000 mg/kg, po after 4 hrs. It is filed as organism-based. Also noted: dose 2000 mg/kg, route oral. The conditions noted are these: in vivo.
Data set [3] deals with T1, Acetylcholinesterase. The experiment in a line: […] inhibition of electric eel AChE using acetylthiocholine chloride as substrate preincubated for 15 mins followed by substrate addition by Lineweaver-Burk plot analysis.
The subject of data set [4] is Mus musculus. Briefly: Acute toxicity in KM mouse assessed as effect on water consumption up to 2000 mg/kg, po after 4 hrs. It is filed as organism-based. More on the design: dose 2000 mg/kg, route oral. The note with it: in vivo.
For data set [5], the system named is Mus musculus. The experiment in a line: Acute toxicity in KM mouse assessed as effect on body weight up to 2000 mg/kg, po after 4 hrs. It is filed as organism-based. More on the design: dose 2000 mg/kg, route oral. The conditions noted are these: in vivo.
Data set [6] concerns Mus musculus. Briefly: Acute toxicity in KM mouse assessed as mortality up to 2000 mg/kg, po after 24 hrs. It counts as organism-based. More on the design: dose 2000 mg/kg, route oral. The note with it: in vivo.
A short description of data set [7]: Acute toxicity in po dosed KM mouse measured for 14 days. The note with it: in vivo. It counts as organism-based.
The nature of the next data set: in vitro. The conditions noted are these: PAMPA.
Data set [8] addresses Acetylcholinesterase (Electrophorus electricus) (UniProt O42275). Briefly: Mixed-type inhibition of electric eel AChE using acetylthiocholine chloride as substrate preincubated for 15 mins followed by substrate addition by Lineweaver-Burk plot analysis.
Data set [9] deals with Acetylcholinesterase (Homo sapiens, UniProt P22303). The experiment in a line: Inhibition of human erythrocyte AChE using acetylthiocholine chloride as substrate preincubated for 15 mins followed by substrate addition measured every 1 min by Ellman's method.
Sequence of Acetylcholinesterase (Homo sapiens, UniProt P22303) (P22303 whole entry): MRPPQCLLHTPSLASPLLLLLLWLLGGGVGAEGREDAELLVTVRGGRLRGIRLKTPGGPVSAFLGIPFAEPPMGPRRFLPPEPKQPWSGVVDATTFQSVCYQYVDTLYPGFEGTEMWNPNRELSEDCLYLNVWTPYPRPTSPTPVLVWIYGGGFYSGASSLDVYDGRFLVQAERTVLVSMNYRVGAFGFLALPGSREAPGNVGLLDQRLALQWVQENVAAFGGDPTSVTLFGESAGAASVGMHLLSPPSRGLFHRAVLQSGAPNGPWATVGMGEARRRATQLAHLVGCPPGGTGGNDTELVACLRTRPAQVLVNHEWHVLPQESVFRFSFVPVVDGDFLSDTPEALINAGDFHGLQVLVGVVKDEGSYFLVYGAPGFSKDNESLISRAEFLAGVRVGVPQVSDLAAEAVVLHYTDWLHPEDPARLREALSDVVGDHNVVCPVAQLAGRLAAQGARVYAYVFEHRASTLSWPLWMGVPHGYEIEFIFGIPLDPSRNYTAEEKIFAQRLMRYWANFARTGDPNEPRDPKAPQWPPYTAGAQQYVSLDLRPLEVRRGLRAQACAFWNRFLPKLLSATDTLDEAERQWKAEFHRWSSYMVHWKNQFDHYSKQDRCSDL

Sequence of Cholinesterase (P81908 whole entry): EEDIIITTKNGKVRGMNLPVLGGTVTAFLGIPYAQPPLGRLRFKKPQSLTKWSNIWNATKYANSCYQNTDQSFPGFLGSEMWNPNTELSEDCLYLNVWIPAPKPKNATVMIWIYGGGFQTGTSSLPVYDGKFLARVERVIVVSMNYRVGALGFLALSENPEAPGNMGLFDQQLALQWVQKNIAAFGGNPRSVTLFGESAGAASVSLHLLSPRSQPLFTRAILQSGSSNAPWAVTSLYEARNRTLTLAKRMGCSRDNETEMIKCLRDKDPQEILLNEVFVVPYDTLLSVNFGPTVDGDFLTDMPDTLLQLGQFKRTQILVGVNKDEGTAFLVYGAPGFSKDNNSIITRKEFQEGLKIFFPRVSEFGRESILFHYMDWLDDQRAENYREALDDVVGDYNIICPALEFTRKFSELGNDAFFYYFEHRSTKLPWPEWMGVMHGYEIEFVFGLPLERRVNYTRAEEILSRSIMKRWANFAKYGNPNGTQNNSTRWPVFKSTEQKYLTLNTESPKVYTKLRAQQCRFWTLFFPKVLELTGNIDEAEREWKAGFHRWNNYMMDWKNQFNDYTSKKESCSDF
Sequence of Acetylcholinesterase (Electrophorus electricus) (O42275 24-633 limits assumed): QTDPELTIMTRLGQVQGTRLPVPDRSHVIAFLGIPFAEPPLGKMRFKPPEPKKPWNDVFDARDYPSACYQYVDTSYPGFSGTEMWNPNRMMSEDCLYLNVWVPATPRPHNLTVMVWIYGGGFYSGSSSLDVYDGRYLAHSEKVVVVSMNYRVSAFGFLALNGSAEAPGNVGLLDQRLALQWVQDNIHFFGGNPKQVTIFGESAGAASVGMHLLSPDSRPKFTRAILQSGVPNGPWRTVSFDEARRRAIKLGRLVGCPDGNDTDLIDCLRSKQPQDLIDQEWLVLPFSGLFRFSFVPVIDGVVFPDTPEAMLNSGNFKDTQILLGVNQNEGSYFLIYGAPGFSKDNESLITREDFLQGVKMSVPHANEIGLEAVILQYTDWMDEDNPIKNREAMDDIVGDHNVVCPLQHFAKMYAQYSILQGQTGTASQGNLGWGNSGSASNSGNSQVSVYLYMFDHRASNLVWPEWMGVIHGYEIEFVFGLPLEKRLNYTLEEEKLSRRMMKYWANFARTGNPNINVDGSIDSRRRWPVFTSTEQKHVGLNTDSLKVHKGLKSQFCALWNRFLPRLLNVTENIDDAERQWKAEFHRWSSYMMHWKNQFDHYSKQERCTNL
Description for in vitro: Effective permeability of the compound at 5 mg/mL after 10 hrs by PAMPA

For `O=c1c2ccc(F)cc2[se]n1CC1CCN(Cc2ccccc2)CC1`, the IC50 at Cholinesterase was found to be 3.46 µM; against Acetylcholinesterase [1], 12.3 µM.
In the same order, the values of `O=c1c2ccc(F)cc2[se]n1C1CCN(Cc2ccccc2)CC1` are 10.6 µM and 19.7 µM.
As for `O=c1c2ccccc2[se]n1CCC1CCN(Cc2ccccc2)CC1`, the IC50 against Cholinesterase turned out to be 2.13 µM; on Acetylcholinesterase [1], 0.382 µM.
Consider `COc1cc2[se]n(CCC3CCN(Cc4ccccc4)CC3)c(=O)c2cc1OC`, for which the Activity entry with Mus musculus [2], in the data set on Mus musculus [4], with Mus musculus [5] and in the data set with Mus musculus [6] was “Non-toxic” in each case. On Acetylcholinesterase [3], this molecule had a Ki of 0.017 µM. Besides, the IC50 at Cholinesterase worked out at 1.59 µM; against Acetylcholinesterase [1], 0.042 µM; at Acetylcholinesterase [9], 0.097 µM. The MTD at 336 h in data set [7] is 2000 mg/kg. In “in vitro”, the Papp at 10 h, 5 mg/mL was 8.6 ×10⁻⁶ cm/s. In [8], the inhibition result is “Active”.
`O=c1c2ccc(F)cc2[se]n1CCC1CCN(Cc2ccccc2)CC1`: the IC50 at Cholinesterase stood at 3.67 µM; on Acetylcholinesterase [1], 0.224 µM.
In the same order, the values of `COc1cc2[se]n(C3CCN(Cc4ccccc4)CC3)c(=O)c2cc1OC` are 9.46 µM and 11.8 µM.
Turning to `COc1cc2[se]n(CCCC3CCN(Cc4ccccc4)CC3)c(=O)c2cc1OC`, the IC50 turned out to be 1.5 µM against Cholinesterase, 0.072 µM against Acetylcholinesterase [1] and 0.231 µM against Acetylcholinesterase [9]. The same molecule displayed a Papp at 10 h, 5 mg/mL in “in vitro” of 10.3 ×10⁻⁶ cm/s.
Turning to `COc1cc2c(cc1OC)[Se](=O)N(CCC1CCN(Cc3ccccc3)CC1)C2=O` (stereo unspecified), the IC50 worked out at 1.36 µM at Cholinesterase, 0.043 µM on Acetylcholinesterase [1] and 0.163 µM at Acetylcholinesterase [9].
Regarding `O=c1c2ccccc2[se]n1-c1ccccc1` [EBSELEN], the IC50 came out at 10.4 µM against Cholinesterase and 41 µM at Acetylcholinesterase [1].
In the same order, the values of `O=c1c2ccc(Cl)cc2[se]n1CCC1CCN(Cc2ccccc2)CC1` are 2.35 µM and 0.206 µM.
Take `COc1cc2[se]n(CCCCC3CCN(Cc4ccccc4)CC3)c(=O)c2cc1OC`: the concentration for half-maximal inhibition (IC50) at Cholinesterase stood at 0.517 µM; at Acetylcholinesterase [1] it was 0.038 µM; against Acetylcholinesterase [9], 0.103 µM. Besides, in “in vitro”, the Papp at 10 h, 5 mg/mL is 15.8 ×10⁻⁶ cm/s.
In the case of `O=c1c2ccc(Cl)cc2[se]n1C1CCN(Cc2ccccc2)CC1`, the 50% inhibitory concentration (IC50) against Cholinesterase is 21.5 µM; against Acetylcholinesterase [1], 10.1 µM.
The corresponding values for `O=c1c2ccccc2[se]n1C1CCN(Cc2ccccc2)CC1` are 8.32 µM and 17.6 µM.
The corresponding values for `COc1cc2[se]n(CC3CCN(Cc4ccccc4)CC3)c(=O)c2cc1OC` are 3.92 µM and 4.23 µM.
The corresponding values for `O=c1c2ccc(Cl)cc2[se]n1CC1CCN(Cc2ccccc2)CC1` are 2.3 µM and 6.16 µM.
On to `O=c1c2ccccc2[se]n1CC1CCN(Cc2ccccc2)CC1`, for which the values for the IC50 against Cholinesterase and against Acetylcholinesterase [1] were 3.63 µM and 19.8 µM, respectively.
